# Values quoted from earlier work as cited in publication PMC10979105, “A simple method to resolve rate constants when the binding mechanism obeys induced fit or conformational selection” (The Journal of Biological Chemistry, 2024).
# Tested on: thrombin
# Design: method as in PMID 23467412
# Conditions: thrombin versus zymogen prethrombin-2; cited from earlier work
compound,measurement,value
CC1CNc2c(cccc2S(=O)(=O)N[C@@H](CCCNC(=N)N)C(=O)N2CC[C@@H](C)C[C@@H]2C(=O)O)C1 (stereo partly shown) [argatroban],affinity for thrombin higher than for prethrombin-2,200 fold
